Laboratory results: patent US20040053270A1, “RNA binding compounds and uses thereof” (priority 2000, published 2004)

Tested on: E. coli ribosomes
Conditions: 20 nM competitor, 20 nM oxazolidinone-TAMRA reporter
Method: The interaction between oxazolidinone-TAMRA and E. coli ribosomes was monitored by comparing the change in fluorescence anisotropy in the presence and absence of 100 μM non-fluorescent oxazolidinone competitor. Each measurement was made in a 400 μl cuvette, in a Perkin Elmer LS50B fluorimeter. Increasing amounts of ribosomes (corresponding to the amounts shown in FIG. 6) were added to a solution of 20 nM oxazolidinone-TAMRA in the presence of 50 mM Tris.HCl pH 7.5, 70 mM NH4Cl, 30 mM KCl, 7 mM MgCl2, 1 mM DTT, 0.5 mM EDTA. For each titration point an anisotropy measurement was acquired using an excitation wavelength of 554 nm with the excitation slits set to 10 nm and an emission wavelength of 575 nm with the emission slits set to 10 nm.
The same experiment was performed, but using 20 nM non-fluorescent linezolid (an oxazolidinone) as the competitor.

Structure (SMILES): CC(=O)NC[C@H]1CN(c2ccc(N3CCOCC3)c(F)c2)C(=O)O1 [linezolid]
- anisotropy upon addition of the ribosomes in the presence of competitor: considerably reduced
